Here are results for one compound from patent US20240415123A1, “METHODS AND COMPOSITIONS FOR ICAFOLIN HERBICIDE TOLERANCE” (Monsanto Technology LLC, priority 2023, published 2024).

What all share (assay type): in vivo
The subject of data set [1] is Soy transgenic plants expressing CYP14. The experiment in a line: Field trial icafolin injury rating, CYP14 soybean. The conditions noted are these: for Percent Plant Injury (21 DAT): averaged across repetitions, field locations and events. The method, then: (§1) Soy transgenic plants expressing CYP14 or CYP15 were assayed in small scale field trails across nine sites in the United States for tolerance to icafolin spray applications. The plants were grown in field plots and sprayed during the early vegetative stages when plants were roughly at the V3 stage. The icafolin formulation was sprayed at either a 5 g ai/ha or 25 g ai/ha application rate with 2 treatment replications per location. The plants were rated for herbicide injury at 7, 14, 21, and 28 days after treatment (DAT). A total of 12 events for CYP14 and 11 events for CYP15 were tested. An event transformed with a non-herbicide tolerance construct served as a negative control to provide a comparison for injury.

In data set [2] the test system is transgenic soybean plants expressing CYP28. Put plainly: Icafolin herbicide injury rating, greenhouse spray, CYP28 soybean. The conditions noted are these: Table 8. An excerpt: The codon-optimized genes were placed into plant transformation cassettes with each CYP coding sequence operably linked to a constitutive expression element comprising the promoter, leader, and intron of Arabidopsis thaliana Ubiquitin 3 (SEQ ID NO:14) and a Medicago truncatula photosystem II terminator (SEQ ID NO:15). Two plant transformation vectors were created, each comprising one of the CYP gene cassettes and an aadA selectable marker expression cassette, conferring resistance to the antibiotics spectinomycin and streptomycin. Soybean cultivar AG3555 seed-derived embryo explants were transformed with the vectors described above by Agrobacterium-mediated transformation using known methods in the art, and positive-transformed plantlets were selected based on growth in the presence of spectinomycin. Plantlets comprising single copy events were grown in the greenhouse to produce R1 seeds. R1 plants were subsequently selected for the homozygous CYP positive plants, either by molecular analysis of young leaf tissue or by seed chipping prior to planting. These selected plants were then screened for tolerance to the icafolin herbicide.
(§2) Herbicide tolerance screening was performed by selecting R1 plants at roughly the V2-V3 developmental stage and applying the icafolin herbicide in a track sprayer under standard greenhouse conditions. Two independent transgenic events per transgene were selected for screening. The herbicide was formulated with 1% v/v methylated seed oil (MSO) and 2.5% v/v ammonium sulfate (AMS) and sprayed with a XR nozzle at 15 gallons per […] (GPA) to mimic field conditions. The icafolin formulation was sprayed at two rates: 5 g active ingredient (ai)/hectare (ha) and 25 g ai/ha. The treated soybean plants were returned to the greenhouse following spray application and allowed to grow under standard conditions. The plants were rated for herbicide injury at approximately 14 and 21 days after treatment (DAT). Untreated transgenic plants and control (wild-type) plants were used for phenotypic comparison. The herbicide injury rating accounts for plant malformation, stunting, chlorosis, necrosis, and plant death relative to the untreated control plants. An injury rating of approximately 90% or above indicates nearly complete plant death. An injury rating of less than 30% indicates partial tolerance and an injury rating of less than 20% indicates good tolerance. Injury ratings were collected and analyzed, and photographs of representative plants were taken.

For data set [3], the system named is soybean event transformed with a non-herbicide tolerance construct (negative control). The experiment in a line: Field trial icafolin injury rating, negative control soybean. The settings on record: averaged across repetitions and field locations. As for the experimental part:
as §1

The test system of data set [4] is transgenic soybean plants expressing CYP34. Put plainly: Icafolin herbicide injury rating, greenhouse spray, CYP34 soybean. The conditions noted are these: Table 10.
From the text: The codon-optimized gene was placed into plant transformation cassette with the CYP34 coding sequence operably linked to a constitutive expression element comprising the promoter, leader, and intron of Arabidopsis thaliana Ubiquitin 3 (SEQ ID NO:14) and a Medicago truncatula photosystem II terminator (SEQ ID NO:15). A plant transformation vector was created, comprising the CYP34 gene cassette and an aadA selectable marker expression cassette, which confers resistance to the antibiotics spectinomycin and streptomycin. Soybean cultivar AG3555 seed-derived embryo explants were transformed with the vector described above by Agrobacterium-mediated transformation using known methods in the art, and positive-transformed plantlets were selected based on growth in the presence of spectinomycin. Plantlets comprising single copy events were grown in the greenhouse to produce R1 seeds. R1 plants were subsequently selected for the homozygous CYP positive plants, either by molecular analysis of young leaf tissue or by seed chipping prior to planting. These selected plants were then screened for tolerance to the icafolin herbicide.
as §2, with “13” for “14”

[5] abbreviates: CYP28 Event 44, 5 g ai/ha icafolin.
[6] abbreviates: CYP28 Event 44, 25 g ai/ha icafolin.
Setting [7] is: CYP28 Event 90, 5 g ai/ha icafolin.
Setting [8] is: CYP28 Event 90, 25 g ai/ha icafolin.
The mark [9] stands for this setting: CYP34 Event 326, 5 g ai/ha icafolin.
Setting [10] is: CYP34 Event 326, 25 g ai/ha icafolin.
The mark [11] stands for this setting: CYP34 Event 356, 5 g ai/ha icafolin.
[12] abbreviates: CYP34 Event 356, 25 g ai/ha icafolin.

Turning to `C=C[C@]1(C(=O)N[C@H]2CO[C@@H](C(=O)OC)C2)CC(c2cc(F)cc(F)c2)=NO1` (relative stereo) [icafolin, methyl(2R*,4R*)-4-[[(5S)-3-(3,5-difluorophenyl)-5-vinyl-4H-isoxazole-5-carbonyl]amino]tetrahydrofuran-2-carboxylate], the “Percent Plant Injury (21 DAT)” value in data set [1] (5 g ai/ha icafolin) stood at 11.4%; in data set [1] (25 g ai/ha icafolin), 41.1%; in data set [3] (5 g ai/ha icafolin) it was 18.9%; in data set [3] (25 g ai/ha icafolin) it was 62.8%. Moreover, the “injury ratings” value in data set [1] (5 g ai/ha, 21 DAT) is “below 15%”. Further, the Tolerance to icafolin result in data set [1] (25 g ai/ha) is reported as “Incomplete tolerance”. Further, the “Percent Injury 14 DAT” value in data set [2] (setting [5]) was 15.6%; in data set [2] (setting [6]) it was 67.2%; in data set [2] (setting [7]), 28.0%; in data set [2] (setting [8]) it was 68.0%. The “Percent injury 21 DAT” value in data set [2] (setting [5]) turned out to be 13.3%; in data set [2] (setting [6]) it was 56.7%; in data set [2] (setting [7]) it was 13.0%; in data set [2] (setting [8]) it was 74.0%; in data set [4] (setting [9]), 9.2%; in data set [4] (setting [10]) it was 36.7%. The “Percent injury 21 DAT” value in data set [4] (setting [11]) is recorded as 12.5%; in data set [4] (setting [12]) it was 30.8%. The “Percent Injury 13 DAT” value is 12.5% in data set [4] (setting [9]), 48.3% in data set [4] (setting [10]), 13.3% in data set [4] (setting [11]) and 35.8% in data set [4] (setting [12]).
